Measurements as given in patent US20040091933A1, “Methods for genetic interpretation and prediction of phenotype” (priority 2003, published 2004).

Test system: yeast
Test: Comparison of the transcript profile of clotrimazole-treated yeast with landmark transcript profiles of yeast mutants (correlation coefficient r)
Format: cell-based
Conditions: transcript abundances relative to wild-type
Experimental: FIG. 2(a-f) illustrates the correlation between the transcriptional response profile of yeast treated with clotrimazole and the transcriptional response profiles of yeast with perturbations in SWI4, RPD3, CNA1 CNA2, HMG2 and ERG11 genes. A straight line (higher correlation coefficient, r) indicates the greatest similarity.
In a preferred embodiment, the similarity between profiles is measured by a weighted correlation coefficient, r, given by Equation 4: [formula]
xik is […] and xjk is qjk/σjk, where qik and qjk are the logarithms of the expression ratios between the perturbed and baseline conditions for gene k in profiles i and j, respectively, and σik and σjk are the expected root mean square uncertainties in the measurements of qik and qjk, respectively. This is an optimally-weighted measure of correlation between two profiles, given the error estimate, σ, on each data point.
In many cases, the particular gene in the pathway that is responsible for a particular phenotype can be identified. […]

## Clc1ccccc1C(c1ccccc1)(c1ccccc1)n1ccnc1 [clotrimazole]
landmark: yeast having a disruption of the ERG11 gene (FIG. 2f)
  correlation coefficient r between clotrimazole transcriptional response and landmark profile: 0.96
landmark: yeast having a disruption of the HMG2 gene (FIG. 2e)
  correlation coefficient r between clotrimazole transcriptional response and landmark profile: 0.83
